One may read the IC50 as the midpoint of a concentration-inhibition curve.

The target in the first assay is CCR8 (Homo sapiens, UniProt P51685). Put plainly: Tango assay (Tango-CCR8-Gal4-CHO-K1 cells, CCL1-stimulated, ONE-Glo luminescence). To be noted: Tango Assay IC50, Inhibition of CCR8 Tango cell in vitro.
CCR8, sequence (P51685 whole entry, the tested form may be a part): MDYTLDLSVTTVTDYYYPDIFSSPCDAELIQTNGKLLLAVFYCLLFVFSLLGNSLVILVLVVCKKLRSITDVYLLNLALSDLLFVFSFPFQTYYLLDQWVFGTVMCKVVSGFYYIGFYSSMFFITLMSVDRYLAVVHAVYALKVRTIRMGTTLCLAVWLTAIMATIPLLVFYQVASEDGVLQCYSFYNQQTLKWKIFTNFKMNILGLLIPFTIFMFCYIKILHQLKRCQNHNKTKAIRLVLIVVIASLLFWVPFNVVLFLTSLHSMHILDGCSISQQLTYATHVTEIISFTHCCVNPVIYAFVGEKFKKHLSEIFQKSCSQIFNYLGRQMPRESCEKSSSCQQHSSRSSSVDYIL
Experimental: The Tango cell line was used to monitor antagonists-mediated receptor inactivation.
Tango cells (Tango-CCR8-Gal4-CHO-K1 cells constructed by Genomeditech) were passaged in complete medium (F12K, 10% FBS, 1% penicillin-streptomycin, 4 μg/ml puromycin, 4 μg/ml blasticidin and 100 μg/ml hygromycin) in incubator (37° C., 5% CO2).
Twenty-four hours before the seed, cells were cultured in 10 or 15 cm dish at a density of 30% confluence in culture medium (F12K, 10% FBS, 1% penicillin-streptomycin).
Cells were suspended in starving medium (F12K, 1% FBS, 1% penicillin-streptomycin) before being seeded into black/clear 96 wells (1×10^4 cells/70 μl/well) and incubated for 6 hours (37° C., 5% CO2). Different concentration of compound, dissolved in DMSO, was into the 96-well plates, with 50 μl in each well, and incubation continued for 1 hour at 37° C.
After the incubation, the medium was removed and the 96-well plate was put in −80° C. freezer for an hour or longer. The plate and the ONE-Glo reagent (Promega, Catalog Number: E6110) which was frozen in −80° C., were taken out and rewarmed to room temperature. The ONE-Glo working reagent was prepared by mixing ONE-Glo reagent with F12K (no FBS) (1:2), and 40 μl ONE-Glo working reagent was added into each well. After incubating for 10 minutes at room temperature, the plate was read using microplate luminescence reader at 560 nm.
The microplate reader records luminescence in relative luminescence units (RLU).
As to `CC(=O)N1CCCC(C(C)NS(=O)(=O)c2ccc(NC(=O)c3ccccc3C)c3ccccc23)C1` (single isomer, unassigned) [Compound 18A, N-(4-(N-(1-(1-acetylpiperidin-3-yl)ethyl)sulfamoyl)naph-thalen-1-yl)-2-methylbenzamide], the midpoint of inhibition, the IC50, lay at 21 nM.
Same read-out and setting: for `CC(=O)N1CCCC(C(C)NS(=O)(=O)c2ccc(NC(=O)c3ccccc3C)c3ccccc23)C1` (single isomer, unassigned) [Compound 18B, N-(4-(N-(1-(1-acetylpiperidin-3-yl)ethyl)sulfamoyl)naph-thalen-1-yl)-2-methylbenzamide] the value was 100 nM; for `COC(=O)CN1CCCC(C(C)NS(=O)(=O)c2ccc(NC(=O)c3ccccc3C)c3ccccc23)C1` (single isomer, unassigned) [Compound 19A, methyl 2-(3-(1-(4-(2-methylbenzamido)naph-thalene-1-sulfonamido)ethyl)piper-idin-1-yl)acetate], 2800 nM; for `COC(=O)CN1CCCC(C(C)NS(=O)(=O)c2ccc(NC(=O)c3ccccc3C)c3ccccc23)C1` (single isomer, unassigned) [Compound 19B, methyl 2-(3-(1-(4-(2-methylbenzamido)naph-thalene-1-sulfonamido)ethyl)piper-idin-1-yl)acetate], more than 10000 nM.
`Cc1ccccc1C(=O)Nc1ccc(S(=O)(=O)NC(C)C2CCCCN2C(=O)OC(C)(C)C)c2ccccc12` (single isomer, unassigned) [Compound 67, tert-butyl 2-(1-(4-(2-methylbenzamido)naph-thalene-1-sulfonamido)ethyl)piper-idine-1-carboxylate] showed an IC50 of 283 nM.
Compound `Cc1ccccc1C(=O)Nc1ccc(S(=O)(=O)NC(C)C2CCCCN2C(=O)OC(C)(C)C)c2ccccc12` (single isomer, unassigned) [Compound 68, tert-butyl 2-(1-(4-(2-methylbenzamido)naph-thalene-1-sulfonamido)ethyl)piper-dine-1-carboxylate] gave an IC50 of 1760 nM.
Same read-out and setting: the value for `COC(=O)CN1CCCCC1C(C)NS(=O)(=O)c1ccc(NC(=O)c2ccccc2C)c2ccccc12` (single isomer, unassigned) [Compound 70A, methyl 2-(2-(1-(4-(2-methylbenzamido)naph-thalene-1-sulfonamido)ethyl)piper-idin-1-yl)acetate] was 116 nM; that for `COC(=O)CN1CCCCC1C(C)NS(=O)(=O)c1ccc(NC(=O)c2ccccc2C)c2ccccc12` (single isomer, unassigned) [Compound 70B, methyl 2-(2-(1-(4-(2-methylbenzamido)naph-thalene-1-sulfonamido)ethyl)piper-idin-1-yl)acetate] was more than 10000 nM.
The same measure, in the same setting: the value for `Cc1ccccc1C(=O)Nc1ccc(S(=O)(=O)NC(C)C2CCCN(C(=O)CNC(=O)OC(C)(C)C)C2)c2ccccc12` (single isomer, unassigned) [Compound 155B, tert-butyl (2-(3-(1-(4-(2-methylbenzamido)naph-thalene-1-sulfonamido)ethyl)piper-idin-1-yl)-2-oxoethyl)carbamate] was more than 10000 nM.
`Cc1ccccc1C(=O)Nc1ccc(S(=O)(=O)NC(C)C2CCCN(C(=O)CN)C2)c2ccccc12` (single isomer, unassigned) [Compound 156A, N-(4-(N-(1-(1-(2-ammoacetyl)piperidin-3-yl)ethyl)sulfamoyl)naph-thalen-1-yl)-2-methylbenzamide]: the IC50 was found to be 85 nM.
Still for that read-out and setting: for `Cc1ccccc1C(=O)Nc1ccc(S(=O)(=O)NC(C)C2CCCN(C(=O)CN)C2)c2ccccc12` (single isomer, unassigned) [Compound 156B, N-(4-(N-(1-(1-(2-aminoacetyl)piperidin-3-yl)ethyl)sulfamoyl)naph-thalen-1-yl)-2-methylbenzamide] the value was more than 10000 nM; for `Cc1ccccc1C(=O)Nc1ccc(S(=O)(=O)NC(C)C2CCCN(C(=O)CN)C2)c2ccccc12` (single isomer, unassigned) [Compound 156C, N-(4-(N-(1-(1-(2-aminoacetyl)piperidin-3-yl)ethyl)sulfamoyl)naph-thalen-1-yl)-2-methylbenzamide], 205 nM.
The compound `Cc1ccccc1C(=O)Nc1ccc(S(=O)(=O)NC(C)C2CCCN(C(=O)CN)C2)c2ccccc12` (single isomer, unassigned) [Compound 156D, N-(4-(N-(1-(1-(2-aminoacetyl)piperidin-3-yl)ethyl)sulfamoyl)naph-thalen-1-yl)-2-methylbenzamide] yielded an IC50 of more than 10000 nM.
Still for that read-out and setting: for `Cc1ccccc1C(=O)Nc1ccc(S(=O)(=O)NC(C)C2CCCN(C(=O)[C@H](C)NC(=O)OC(C)(C)C)C2)c2ccccc12` (single isomer, unassigned) [Compound 157A] the value was more than 10000 nM.
The same measure, in the same setting: the value for `Cc1ccccc1C(=O)Nc1ccc(S(=O)(=O)NC(C)C2CCCN(C(=O)[C@H](C)N)C2)c2ccccc12` (single isomer, unassigned) [Compound 158A] was 1500 nM; that for `Cc1ccccc1C(=O)Nc1ccc(S(=O)(=O)NC(C)C2CCCN(C(=O)[C@H](C)N)C2)c2ccccc12` (single isomer, unassigned) [Compound 158B] was 685 nM.
Still for that read-out and setting: the value for `Cc1ccccc1C(=O)Nc1ccc(S(=O)(=O)NC(C)C2CCCN(C(=O)[C@H](C)N)C2)c2ccccc12` (single isomer, unassigned) [Compound 158C] was 458 nM.
With `Cc1ccccc1C(=O)Nc1ccc(S(=O)(=O)NC(C)C2CCCN(C(=O)[C@H](C)N)C2)c2ccccc12` (single isomer, unassigned) [Compound 158D], the IC50 amounted to 1020 nM.
Consider `CCCN1CCN(c2cccc(NS(=O)(=O)c3ccc(NC(=O)c4ccccc4C)c4ccccc34)c2C)CC1` [Compound 2, 2-methyl-N-(4-(N-(2-methyl-3-(4-propylpiperazin-1-yl)phenyl)sulfamoyl)naphthalen-1-yl)benzamide], for which the half-inhibitory concentration (IC50) was more than 10000 nM.
Still for that read-out and setting: the value for `CCCN1CCN(c2ccc(OC)c(NS(=O)(=O)c3ccc(NC(=O)c4ccccc4C)c4ccccc34)c2)CC1` [Compound 3, N-(4-(N-(2-methoxy-5-(4-propylpiperazin-1-yl)phenyl)sulfamoyl)naphthalen-1-yl)-2-methylbenzamide] was more than 10000 nM; that for `CCCN1CCCN(c2cc(NS(=O)(=O)c3ccc(NC(=O)c4ccccc4C)c4ccccc34)ccc2OC)CC1` [Compound 4, N-(4-(N-(4-methoxy-3-(4-propyl-1,4-diazepan-1-yl)phenyl)sulfamoyl)naphthalen-1-yl)-2-methylbenzamide] was 1170 nM; that for `CCOC(=O)N1CCCC(C(=O)NS(=O)(=O)c2ccc(NC(=O)c3ccccc3C)c3ccccc23)C1` (stereo not shown) [Compound 5, ethyl 3-(((4-(2-methylbenzamido)naph-thalen-1-yl)sulfonyl)carbamoyl) piperidine-1-carboxylate] was more than 10000 nM.
In the case of `CCCC(=O)N1CCCC1C(=O)NS(=O)(=O)c1ccc(NC(=O)c2ccccc2C)c2ccccc12` (stereo not shown) [Compound 7, 1-butyryl-N-((4-(2-methylbenzamido)naph-thalen-1-yl)sulfonyl)pyrrolidine-2-carboxamide], the half-maximal inhibitory concentration (IC50) is more than 10000 nM.
Still for that read-out and setting: for `CCCC(=O)N1CCCC(C(=O)NS(=O)(=O)c2ccc(NC(=O)c3ccccc3C)c3ccccc23)C1` (stereo not shown) [Compound 9, 1-butyryl-N-((4-(2-methylbenzamido)naph-thalen-1-yl)sulfonyl)piperidine-3-carboxamide] the value was more than 10000 nM.
The same measure, in the same setting: the value for `Cc1ccccc1C(=O)Nc1ccc(S(=O)(=O)NC(=O)c2cccc(N(C)C)c2)c2ccccc12` [Compound 10, N-(4-(N-(3-(dimethylamino)benzoyl)sulfamoyl)naphthalen-1-yl)-2-methylbenzamide] was more than 10000 nM.
Consider `CCCN1CCN(c2cccc(C(=O)NS(=O)(=O)c3ccc(NC(=O)c4ccccc4C)c4ccccc34)c2)CC1` [Compound 11, 2-methyl-N-(4-(N-(3-(4-propylpiperazin-1-yl)benzoyl)sulfamoyl)naphthalen-1-yl)benzamide], for which the half-inhibitory concentration (IC50) was more than 10000 nM.
Take `Cc1ccccc1C(=O)Nc1ccc(S(=O)(=O)NC(=O)c2ccccc2N2CCCCC2)c2ccccc12` [Compound 12, 2-methyl-N-(4-(N-(2-(piperidin-1-yl)benzoyl)sulfamoyl)naphthalen-1-yl)benzamide]: the IC50 was more than 10000 nM.
Still for that read-out and setting: the value for `Cc1ccccc1C(=O)Nc1ccc(S(=O)(=O)NC(=O)c2ccccc2N2CCOCC2)c2ccccc12` [Compound 13, 2-methyl-N-(4-(N-(2-morpholinobenzoyl)sul-famoyl)naphthalen-1-yl)benzamide] was more than 10000 nM; that for `CCCC(=O)N1CCCC(CNS(=O)(=O)c2ccc(NC(=O)c3ccccc3C)c3ccccc23)C1` (stereo not shown) [Compound 14, N-(4-(N-((1-butyrylpiperidine-3-yl)methyl)sulfamoyl)naphthalen-1-yl)-2-methylbenzamide] was more than 10000 nM.

The assay is the same for the next values; noted with them: read-out: Tango Assay IC50, Inhibition of CCR8 Tango cell in vitro.
On to `Cc1ccccc1C(=O)Nc1ccc(S(=O)(=O)NC(C)C2CCCN(C(=O)[C@H](C)NC(=O)OC(C)(C)C)C2)c2ccccc12` (single isomer, unassigned) [Compound 157B], for which the IC50 was more than 10000 nM.
Take `Cc1ccccc1C(=O)Nc1ccc(S(=O)(=O)NC(C)C2CCCN(C(=O)[C@H](C)NC(=O)OC(C)(C)C)C2)c2ccccc12` (single isomer, unassigned) [Compound 157C]: the IC50 was more than 10000 nM.
For `Cc1ccccc1C(=O)Nc1ccc(S(=O)(=O)NC(C)C2CCCN(C(=O)[C@H](C)NC(=O)OC(C)(C)C)C2)c2ccccc12` (single isomer, unassigned) [Compound 157D], the 50% inhibitory concentration (IC50) is more than 10000 nM.
Same read-out and setting: for `COC1CCC([C@@H](C)NS(=O)(=O)c2ccc(NC(=O)c3ccccc3C)c(C)c2)CC1` (single isomer, unassigned) [Compound 293A, N-(4-(N-(1-(4-methoxycyclohexyl)ethyl)sulfamoyl)-2-methylphenyl)-2-methylbenzamide] the value was 24 nM.
Still for that read-out and setting: the value for `COC1CCC([C@@H](C)NS(=O)(=O)c2ccc(NC(=O)c3ccccc3C)c(C)c2)CC1` (single isomer, unassigned) [Compound 293B, N-(4-(N-(1-(4-methoxycyclohexyl)ethyl)sulfamoyl)-2-methylphenyl)-2-methylbenzamide] was 46 nM.

(Values after US12552753B2, “Methods and compositions for targeting Tregs using CCR8 inhibitors” (Nanjing Immunophage Biomedical Co., Ltd., priority 2020, dated 2026).)
